What was measured:
[1] = system: rats with testis removed; assay: Duration of penile erection in rats with testis removed (Example 8); format: in vivo, wistar rats
[2] = Preliminary acute toxicity, Bliss method (Example 13); details: rat, in vivo, oral and intragastric administration, rats
Experimental: Experimental methods: the toxicity test was conducted by oral and intragastric administration of the pyrazolopyrimidinethione derivatives of the invention using the Bliss method.

[3] = system: anesthetized dogs; assay: Blood pressure, heart rate and respiration of anesthetized dogs (Example 11); format: in vivo; details: oral 40 mg/kg; in 3 hours after administration
Experimental: Methods: eight healthy male dogs with the body weight ranging from 12-15 kg were used. The dogs were anesthetized with 30 mg/kg of sodium pentobarbital. The femoral artery was dissected and inserted with a blood pressure transducer to record the blood pressure. The limbs were pierced with electrodes for recording the electrocardiogram. The respiration belt was wrapped around their chest and the respiration rate was recorded. The apparatus used was RM-6000 Polygraph system (NIHON KOHDEN, Japan). The changes in the arterial blood pressure, the heart rate, and the respiration were observed after the test compound was introduced into the stomach of the anesthetized dogs via 14# catheter.

[4] = system: rats with testis removed; assay: Penile erection caused by stimulating electric current in rats with testes removed (Example 7); format: in vivo, wistar rats; details: for Latent period / Swelling time: stimulation 35 min after administration
Source text: Methods: Forty healthy adult male wistar rats were used in the study, with the body weight ranging from 230 g to 250 g. The rats were anesthetized with sodium pentobarbital, and their testes were squeezed into the scrotum. After sterilization, the scrotum was dissected with an operation knife. The testes and epididymis were taken out respectively and then ligated. The wound were sutured and 100,000 unit of penicillin was administrated to each rat for three consecutive days. After breeding for one week, the rats were used for the tests. The animals may be used repeatedly and the interval between any two of the tests was one week. […] Sildenafil at the dose of 50 mg/kg was used as the positive control. The control group is (1% sodium carboxymethyl cellulose). In 35 min after the administration, the penis of the rats was stimulated with SEN-3201 stimulator (NIHON KOHDEN, Japan), with the following parameters: the stimulating voltage of 10V, the time interval (T1) of 250 msec, the deferment time (T2) of 10 msec, the duration (T3) of 500 μsec, and the stimulation rank (n) of 25. At the same time, the latent period (sec) of the penile erection and the penile swelling time (min) were recorded with a three-channel stop-watch.

[5] = system: anesthetized rats; assay: Blood pressure and heart rate of anesthetized rats (Example 12); format: in vivo, wistar rats
Experimental: Forty male wistar rats with the body weight ranging from 220-240 g were used in the study. Pharmaceuticals: compound (2) and Sildenafil, which were ground and then suspended with 1% of sodium carboxymethyl cellulose. Apparatus: RM-6000 eight-graph system (NIHON KOHDEN, Japan). The doses for administration and the division of the groups: solvent control group (abbreviated as the control group), 20 mg/kg of compound (2), 40 mg/kg of compound (2), 80 mg/kg of compound (2), and 50 mg/kg of Sildenafil. The administration route is through dodecadactylon. Methods: the male wistar rats were taken out and anesthetized with 35 mg/kg of sodium pentobarbital by injecting into the abdominal cavity, on the basis of their body weight. The rats were fixed on the operation table and were performed with the dissection operation of right carotid artery. The catheter with an external diameter of 1 mm was inserted into the right carotid artery. The blood pressure was measured and the electrodes positioned on the skin of the four limbs were used to record the electrocardiogram limb lead II. The catheter with an external diameter of 2 mm was inserted into the dodecadactylon via incision of the epigastric region, for the administration of the pharmaceuticals. RM-6000 eight-graph system (NIHON KOHDEN, Japan) was employed to record. Observation time: the value before administration, the values at 15, 30, 60, 120 and 180 min after the administration.

[6] = 20 mg/kg through dodecadactylon, at 15 min after administration
[7] = 20 mg/kg through dodecadactylon, at 30 min after administration
[8] = 20 mg/kg through dodecadactylon, at 60 min after administration
[9] = 20 mg/kg through dodecadactylon, at 120 min after administration
[10] = 20 mg/kg through dodecadactylon, value before administration
[11] = 40 mg/kg through dodecadactylon, at 15 min after administration
[12] = 40 mg/kg through dodecadactylon, at 30 min after administration
[13] = 40 mg/kg through dodecadactylon, at 60 min after administration
[14] = 40 mg/kg through dodecadactylon, at 120 min after administration
[15] = 40 mg/kg through dodecadactylon, value before administration
[16] = 80 mg/kg through dodecadactylon, at 15 min after administration
[17] = 80 mg/kg through dodecadactylon, at 30 min after administration
[18] = 80 mg/kg through dodecadactylon, at 60 min after administration
[19] = 80 mg/kg through dodecadactylon, at 120 min after administration
[20] = 80 mg/kg through dodecadactylon, value before administration
[21] = 20, 40 and 80 mg/kg through dodecadactylon

CCCc1nn(C)c2c(=S)[nH]c(-c3cc(S(=O)(=O)N4C[C@@H](C)N[C@@H](C)C4)ccc3OCC)nc12 [Compound (2), 5-[2-ethoxy-5-(cis-3,5-dimethylpiperazin-1-sulfonyl)phenyl]-1-methyl-3-n-propyl-1,6-dihydro-7H-pyrazolo[4,3-d]pyrimidin-7-thione] showed a Penile swelling time ([1]; oral 10 mg/kg, at 1 h after administration) of 679.6 ± 13.2 s, a Penile swelling time ([1]; oral 10 mg/kg, at 3 h after administration) of 544.7 ± 166.9 s and a Penile swelling time ([1]; oral 10 mg/kg, at 6 h after administration) of 268.7 ± 146.2 s. For the same compound, the Penile swelling time ([1]; oral 10 mg/kg, at 24 h after administration) was 98.6 ± 57.9 s, the Penile swelling time ([1]; oral 10 mg/kg, value before administration) was 67.7 ± 12.3 s and the Penile swelling time ([1]; oral 20 mg/kg, at 1 h after administration) was 1514.8 ± 258.9 s. It also gave a Penile swelling time ([1]; oral 20 mg/kg, at 3 h after administration) of 906.0 ± 406.7 s, a Penile swelling time ([1]; oral 20 mg/kg, at 6 h after administration) of 275.8 ± 154.2 s and a Penile swelling time ([1]; oral 20 mg/kg, at 24 h after administration) of 201.0 ± 85.7 s. For the same compound, the Penile swelling time ([1]; oral 20 mg/kg, value before administration) was 82.4 ± 26.6 s, the “how long the penile swelling effect lasts after administration” value ([1]; oral 40 mg/kg and 20 mg/kg) was “up to 24 hours” and the Penile swelling time ([1]; oral 40 mg/kg, at 1 h after administration) was 2187.1 ± 547.8 s. The Penile swelling time ([1]; oral 40 mg/kg, at 3 h after administration) was 783.0 ± 329.2 s, the Penile swelling time ([1]; oral 40 mg/kg, at 6 h after administration) was 678.7 ± 221.8 s and the Penile swelling time ([1]; oral 40 mg/kg, at 24 h after administration) was 194.0 ± 65.1 s. The Penile swelling time ([1]; oral 40 mg/kg, value before administration) was 84.0 ± 18.4 s, the LD50 [2] was over 3000 mg/kg and the “arterial blood pressure (systolic and diastolic), heart rate and respiration (frequency and depth), in words” value [3] was “did not experience an evident change”. The “penile swelling time (in words)” value ([4]; compared with control) was “lengthened”, the “latent period of the penile erection (in words)” value ([4]; compared with control, P<0.001) was “evidently shortened” and the “penile swelling time compared with positive control sildenafil (in words)” value ([4]; compared with sildenafil 50 mg/kg) was “more evident”. The Latent period ([4]; oral 10 mg/kg) was 29.5 ± 4.2 s, the Swelling time ([4]; oral 10 mg/kg) was 1069.8 ± 621.5 s and the Latent period ([4]; oral 20 mg/kg) was 29.5 ± 4.2 s. It also gave a Swelling time ([4]; oral 20 mg/kg) of 1480.5 ± 469.7 s, a Latent period ([4]; oral 40 mg/kg) of 30.1 ± 3.9 s and a Swelling time ([4]; oral 40 mg/kg) of 2675.5 ± 769.2 s. It also gave a Heart rate [5, 6] of 440 ± 29.7 times/min, a Systolic pressure [5, 6] of 132 ± 29.5 mmHg and a diastolic pressure [5, 6] of 108 ± 29.7 mmHg. For the same compound, the Heart rate [5, 7] was 440 ± 29.6 times/min, the Systolic pressure [5, 7] was 134 ± 29.6 mmHg and the diastolic pressure [5, 7] was 104 ± 29.6 mmHg. For the same compound, the Heart rate [5, 8] was 436 ± 22.9 times/min, the Systolic pressure [5, 8] was 128 ± 22.9 mmHg and the diastolic pressure [5, 8] was 101 ± 22.9 mmHg. The Heart rate [5, 9] was 428 ± 22.6 times/min, the Systolic pressure [5, 9] was 127 ± 22.6 mmHg and the diastolic pressure [5, 9] was 102 ± 22.6 mmHg. The Heart rate ([5]; 20 mg/kg through dodecadactylon, before administration) was 445 ± 25.1 times/min, the Systolic pressure [5, 10] was 134 ± 7.2 mmHg and the diastolic pressure [5, 10] was 109 ± 14.1 mmHg. It also gave a Heart rate [5, 11] of 422 ± 29.7 times/min, a Systolic pressure [5, 11] of 130 ± 29.7 mmHg and a diastolic pressure [5, 11] of 109 ± 29.7 mmHg. For the same compound, the Heart rate [5, 12] was 427 ± 29.6 times/min, the Systolic pressure [5, 12] was 134 ± 29.6 mmHg and the diastolic pressure [5, 12] was 109 ± 29.6 mmHg. For the same compound, the Heart rate [5, 13] was 425 ± 22.9 times/min, the Systolic pressure [5, 13] was 122 ± 22.9 mmHg and the diastolic pressure [5, 13] was 109 ± 22.9 mmHg. The Heart rate [5, 14] was 424 ± 22.6 times/min, the Systolic pressure [5, 14] was 133 ± 22.6 mmHg and the diastolic pressure [5, 14] was 112 ± 22.6 mmHg. The Heart rate ([5]; 40 mg/kg through dodecadactylon, before administration) was 429 ± 42.8 times/min, the Systolic pressure [5, 15] was 129 ± 13.6 mmHg and the diastolic pressure [5, 15] was 109 ± 14.4 mmHg. It also gave a Heart rate [5, 16] of 439 ± 29.7 times/min, a Systolic pressure [5, 16] of 121 ± 29.7 mmHg and a diastolic pressure [5, 16] of 102 ± 29.7 mmHg. The Heart rate [5, 17] was 442 ± 29.6 times/min, the Systolic pressure [5, 17] was 123 ± 29.6 mmHg and the diastolic pressure [5, 17] was 97 ± 29.6 mmHg. For the same compound, the Heart rate [5, 18] was 436 ± 22.8 times/min, the Systolic pressure [5, 18] was 121 ± 22.9 mmHg and the diastolic pressure [5, 18] was 96 ± 22.9 mmHg. It also gave a Heart rate [5, 19] of 438 ± 22.6 times/min, a Systolic pressure [5, 19] of 119 ± 22.6 mmHg and a diastolic pressure [5, 19] of 94 ± 22.6 mmHg. For the same compound, the Heart rate ([5]; 80 mg/kg through dodecadactylon, before administration) was 439 ± 22.6 times/min, the Systolic pressure [5, 20] was 126 ± 12.1 mmHg and the diastolic pressure [5, 20] was 102 ± 12.0 mmHg. For the same compound, the “effect on the heart rate (in words)” value [5, 21] was “did not exhibit an evident effect” and the “effect on the systolic pressure and diastolic pressure (in words)” value [5, 21] was “did not exhibit an evident effect”.

Reference: patent US20070219220A1, “Pyrazolopyrimidinethione Derivatives, Salts and Solvates Thereof, Preparation Methods and Use Thereof” (priority 2003, published 2007)
